The values that follow come from patent US12234238B2, “Antimicrobial compounds and methods of making and using the same” (BIOVERSYS AG, priority 2017, dated 2025).

Assay [1] deals with Staphylococcus aureus (S. aureus) 11540 strain. Description: standard microdilution assay to determine minimum inhibitory concentrations (MICs), S. aureus. The class given is cell-based. How it is done: (§1) The in vitro activity of the compounds of the present disclosure can be determined. Antimicrobial testing is typically performed to determine the minimum inhibitory concentration (MIC). Minimum inhibitory concentrations (MICs) are determined by the microdilution method in a final volume of 100 μl according to protocols outlined by The Clinical and Laboratory Standards Institute (CLSI). Performance standards for reference strains are assessed within the same experimental design to maintain quality control. See, for example, Clinical Laboratory Standards Institute: Methods for dilution antimicrobial susceptibility tests for bacteria that grow aerobically M7-A8. Approved Standard-Eighth Edition. Wayne, PA: CLSI; December 2008: and Clinical Laboratory Standards Institute: Performance Standards for Antimicrobial Susceptibility Testing M100-S20; Approved Standard-Twentieth Edition. Wayne, PA: CLSI; June 2010. The compounds of the present disclosure were tested for antimicrobial activity. The Compounds 1-122 were run against Eschericia coli (E. coli) strain ATCC25922 and against Staphylococcus aureus (S. aureus) 11540 strain using a standard microdilution assay to determine minimum inhibitory concentrations (MICs). […] It will be recognized by one skilled in the art that the compounds can be assessed against other bacterial organisms and that the presentation of data for activity against Eschericia coli and Staphylococcus aureus are illustrative and in no way is intended to limit the scope of the present disclosure. The compounds of the present disclosure can be assayed against a range of other microorganisms depending upon the performance activity desired to be gathered. Furthermore, the “+” and “−” representation and the selection of a cutoff value of 16 micrograms/mL is also illustrative and in no way is intended to limit the scope of the present disclosure.
For orientation: Broth dilution looks for growth in wells or tubes with falling amounts of substance.

The subject of assay [2] is Eschericia coli (E. coli) strain ATCC25922. The experiment in a line: standard microdilution assay to determine minimum inhibitory concentrations (MICs), E. coli. The class given is cell-based. Conditions: Escherichia coli. How it is done:
as §1

Structures are written as SMILES.

For orientation: MIC means the smallest concentration in the dilution series that meets the test's criterion for growth inhibition. Low values mean inhibition by little substance, high ones a need for much substance. Consider `N=C(N)SCC[C@@H]1CCC[C@@H](c2ccc(-n3cc4cc(-c5cc(CCC[C@@H](N)C6CC6)cc(Cl)c5F)[nH]c4nc3=O)cc2)N1CCCF` [Compound 5], for which the minimal inhibitory concentration (MIC) in assay [1] and in assay [2] was at most 16 µg/mL each time.

Consider `C[C@H](N)CCc1cc(Cl)c(F)c(-c2cc3cn(-c4ccc([C@@H]5CCC[C@@H](CCSC(=N)N)N5)cc4)c(=O)nc3[nH]2)c1` [Compound 37], for which the MIC in assay [1] and in assay [2] was at most 16 µg/mL in each case.

For `C[C@H](N)CCCc1cc(Cl)c(F)c(-c2cc3cn(-c4ccc([C@@H]5CCC[C@@H](CCSC(=N)N(C)C)N5)cc4)c(=O)nc3[nH]2)c1` [Compound 44], the MIC in assay [1] and in assay [2] was at most 16 µg/mL throughout.

Take `N=C(N)SCC[C@@H]1CCC[C@@H](c2ccc(-n3cc4cc(-c5cc(CCC[C@@H](N)CO)cc(Cl)c5F)[nH]c4nc3=O)cc2)N1` [Compound 8]: the MIC in assay [1] and in assay [2] was at most 16 µg/mL each time.

With `CSC(=N)NCC[C@@H]1CCC[C@@H](c2ccc(-n3cc4cc(-c5cc(CCC[C@H](C)N)cc(Cl)c5F)[nH]c4nc3=O)cc2)N1` [Compound 120], the MIC in assay [1] and in assay [2] was at most 16 µg/mL in each case.

In the case of `C[C@H](N)CCCc1cc(Cl)c(F)c(-c2cc3cn(-c4ccc([C@@H]5CCC=C[C@@H](CCSC(=N)N)N5)cc4)c(=O)nc3[nH]2)c1` [Compound 59], the MIC in assay [1] and in assay [2] was at most 16 µg/mL in each case.

`C[C@H](N)CCCc1cc(Cl)c(F)c(-c2cc3cn(-c4ccc([C@@H]5CCC[C@@H](CCSC(=N)N)N5CCC5CC5)cc4)c(=O)nc3[nH]2)c1` [Compound 103]: the MIC in assay [1] and in assay [2] was at most 16 µg/mL throughout.

As to `N=C(N)SCC[C@@H]1CCC[C@@H](c2ccc(-n3cc4cc(-c5cc(CCC[C@@H](N)COC(=O)c6ccccc6)cc(Cl)c5F)[nH]c4nc3=O)cc2)N1` [Compound 10], the MIC in assay [1] and in assay [2] was at most 16 µg/mL in each case.

`CSC(=N)NCC[C@@H]1CCC[C@@H](c2ccc(-n3cc4cc(-c5cc(CCC[C@H](C)N)cc(Cl)c5F)[nH]c4nc3=O)cc2F)N1` [Compound 121]: the MIC in assay [1] and in assay [2] was at most 16 µg/mL throughout.

On to `C[C@H](N)CCCc1cc(Cl)c(F)c(-c2cc3cn(-c4ccc([C@H]5C[C@H](CCSC(=N)N)CN5)cc4)c(=O)nc3[nH]2)c1` [Compound 114], for which the MIC in assay [1] and in assay [2] was at most 16 µg/mL throughout.

Turning to `C[C@H](N)CCCc1cc(Cl)c(F)c(-c2cc3cn(-c4ccc([C@@H]5C[C@@H](CCSC(=N)N)CN5)cc4)c(=O)nc3[nH]2)c1` [Compound 116], the MIC in assay [1] and in assay [2] was at most 16 µg/mL in each case.

Regarding `CC(=O)c1cc(CCC[C@H](C)N)cc(-c2cc3cn(-c4ccc([C@@H]5CCC[C@@H](CCSC(=N)N)N5)cc4)c(=O)nc3[nH]2)c1` [Compound 92], the MIC in assay [1] and in assay [2] was at most 16 µg/mL each time.

Consider `N=C(N)SCC[C@@H]1CCC[C@@H](c2ccc(-n3cc4cc(-c5cc(CCC[C@@H](N)C6CC6)cc(Cl)c5F)[nH]c4nc3=O)cc2F)N1` [Compound 25], for which the MIC in assay [1] and in assay [2] was at most 16 µg/mL each time.

Regarding `C[C@H](N)CCCc1cc(Cl)c(F)c(-c2cc3cn(-c4ccc([C@@H]5CCCC[C@@H](CCSC(=N)N)N5)cc4)c(=O)nc3[nH]2)c1` [Compound 52], the MIC in assay [1] and in assay [2] was at most 16 µg/mL each time.

Consider `CCc1c(F)c(CCC[C@H](C)N)cc(-c2cc3cn(-c4ccc([C@@H]5CCC[C@@H](CCSC(=N)N)N5)cc4)c(=O)nc3[nH]2)c1F` [Compound 104], for which the minimal inhibitory concentration (MIC) in assay [1] and in assay [2] was at most 16 µg/mL throughout.

With `COCCN1[C@H](CCSC(=N)N)CCC[C@H]1c1ccc(-n2cc3cc(-c4cc(CCC[C@H](C)N)cc(Cl)c4F)[nH]c3nc2=O)cc1` [Compound 97], the MIC in assay [1] was at most 16 µg/mL; in assay [2] it was above 16 µg/mL.

With `C[C@H](N)CCCN1C=C(c2cc3cn(-c4ccc([C@@H]5CCC[C@@H](CCSC(=N)N)N5)cc4)c(=O)nc3[nH]2)CCC1` [Compound 58], the MIC in assay [1] and in assay [2] was at most 16 µg/mL in each case.

In the case of `N=C(N)SCC[C@@H]1CCC[C@@H](c2ccc(-n3cc4cc(-c5cc(CCC[C@@H](N)C6CC6)cc(Cl)c5F)[nH]c4nc3=O)cc2)N1` [Compound 1], the MIC in assay [1] and in assay [2] was at most 16 µg/mL throughout.

Turning to `C[C@H](N)CCCc1cc(Cl)c(F)c(-c2cc3cn(-c4ccc([C@@H]5CC=C[C@@H](CCSC(=N)N)N5)cc4)c(=O)nc3[nH]2)c1` [Compound 16], the MIC in assay [1] and in assay [2] was at most 16 µg/mL each time.

Take `C[C@H](N)CCCc1cc(Cl)c(F)c(-c2cc3cn(-c4ccc([C@@H]5CCC[C@@H](CCSC(=N)N)N5CCCO)cc4)c(=O)nc3[nH]2)c1` [Compound 6]: the MIC in assay [1] and in assay [2] was at most 16 µg/mL throughout.

Consider `N=C(N)SCC[C@@H]1CCC[C@@H](c2ccc(-n3cc4cc(-c5cc(CCC[C@@H](N)CO)cc(Cl)c5F)[nH]c4nc3=O)cc2F)N1` [Compound 22], for which the MIC in assay [1] and in assay [2] was at most 16 µg/mL each time.

For the compound `CN[C@H]1CNC(c2cc3cn(-c4ccc([C@@H]5CCC[C@@H](CCSC(=N)N)N5)cc4)c(=O)nc3[nH]2)C1` (stereo partly drawn) [Compound 83], the minimal inhibitory concentration (MIC) in assay [1] and in assay [2] was at most 16 µg/mL in each case.

On to `CC(C)CN1[C@H](CCSC(=N)N)CCC[C@H]1c1ccc(-n2cc3cc(-c4cc(CCC[C@H](C)N)cc(Cl)c4F)[nH]c3nc2=O)cc1` [Compound 90], for which the MIC in assay [1] and in assay [2] was at most 16 µg/mL throughout.

For the compound `CCc1cc(CCC[C@H](C)N)cc(-c2cc3cn(-c4ccc([C@@H]5CCC[C@@H](CCSC(=N)N)N5)cc4)c(=O)nc3[nH]2)c1` [Compound 87], the minimum inhibitory concentration (MIC) in assay [1] and in assay [2] was at most 16 µg/mL each time.

For `C[C@H](N)CCCc1cc(Cl)c(F)c(-c2cc3cn(-c4ccc([C@@H]5CCC[C@@H](CCSC(=N)N)N5C)cc4)c(=O)nc3[nH]2)c1` [Compound 42], the MIC in assay [1] and in assay [2] was at most 16 µg/mL throughout.

Regarding `N=C(N)SCC[C@@H]1CCC[C@@H](c2ccc(-n3cc4cc(C5C[C@@H](OCc6ccccc6)CN5)[nH]c4nc3=O)cc2)N1` (stereo partly drawn) [Compound 49], the MIC in assay [1] and in assay [2] was at most 16 µg/mL throughout.

In the case of `CSCCN1[C@H](CCSC(=N)N)CCC[C@H]1c1ccc(-n2cc3cc(-c4cc(CCC[C@H](C)N)cc(Cl)c4F)[nH]c3nc2=O)cc1` [Compound 91], the minimum inhibitory concentration (MIC) in assay [1] and in assay [2] was at most 16 µg/mL each time.

For the compound `C[C@H](N)Cc1cc(Cl)c(F)c(-c2cc3cn(-c4ccc([C@@H]5CCC[C@@H](CCSC(=N)N)N5)cc4)c(=O)nc3[nH]2)c1` [Compound 23], the minimal inhibitory concentration (MIC) in assay [1] and in assay [2] was at most 16 µg/mL each time.

In the case of `C[C@@H](N)CCCN1C[C@H](CO)CC1c1cc2cn(-c3ccc([C@@H]4CCC[C@@H](CCSC(=N)N)N4)cc3)c(=O)nc2[nH]1` (stereo partly drawn) [Compound 81], the MIC in assay [1] and in assay [2] was at most 16 µg/mL throughout.

On to `C[C@H](N)CCCN1CCCCC1c1cc2cn(-c3ccc([C@@H]4CCC[C@@H](CCSC(=N)N)N4)cc3)c(=O)nc2[nH]1` (stereo partly drawn) [Compound 33], for which the MIC in assay [1] and in assay [2] was at most 16 µg/mL each time.

With `C[C@@H](N)Cc1cc(Cl)c(F)c(-c2cc3cn(-c4ccc([C@@H]5CCC[C@@H](CCSC(=N)N)N5)cc4)c(=O)nc3[nH]2)c1` [Compound 24], the MIC in assay [1] and in assay [2] was at most 16 µg/mL each time.

`C[C@H](CO)CN1[C@H](CCSC(=N)N)CCC[C@H]1c1ccc(-n2cc3cc(-c4cc(CCC[C@H](C)N)cc(Cl)c4F)[nH]c3nc2=O)cc1` [Compound 105]: the MIC in assay [1] and in assay [2] was at most 16 µg/mL throughout.

`C[C@@H](N)CCCN1CC(F)(F)CC1c1cc2cn(-c3ccc([C@@H]4CCC[C@@H](CCSC(=N)N)N4)cc3)c(=O)nc2[nH]1` (stereo partly drawn) [Compound 71]: the MIC in assay [1] and in assay [2] was at most 16 µg/mL throughout.

For `C=C[C@H](N)CCCc1cc(Cl)c(F)c(-c2cc3cn(-c4ccc([C@@H]5CCC[C@@H](CCSC(=N)N)N5)cc4)c(=O)nc3[nH]2)c1` [Compound 45], the MIC in assay [1] and in assay [2] was at most 16 µg/mL in each case.

For `C[C@H](N)CCCc1cc(-c2cc3cn(-c4ccc([C@@H]5CCC[C@@H](CCSC(=N)N)N5)cc4)c(=O)nc3[nH]2)cc2c1CCCC2` [Compound 93], the MIC in assay [1] and in assay [2] was at most 16 µg/mL in each case.

Turning to `C=CCCN1[C@H](CCSC(=N)N)CCC[C@H]1c1ccc(-n2cc3cc(-c4cc(CCC[C@H](C)N)cc(Cl)c4F)[nH]c3nc2=O)cc1` [Compound 94], the MIC in assay [1] and in assay [2] was at most 16 µg/mL in each case.

On to `C[C@H](O)CCCc1cc(Cl)c(F)c(-c2cc3cn(-c4ccc([C@@H]5CCC[C@@H](CCSC(=N)N)N5)cc4)c(=O)nc3[nH]2)c1` [Compound 28], for which the MIC in assay [1] and in assay [2] was at most 16 µg/mL in each case.

For the compound `COC(=O)CN1[C@H](CCSC(=N)N)CCC[C@H]1c1ccc(-n2cc3cc(-c4cc(CCC[C@H](C)N)cc(Cl)c4F)[nH]c3nc2=O)cc1` [Compound 96], the MIC in assay [1] and in assay [2] was at most 16 µg/mL in each case.

On to `C[C@H](N)CCCN1CC=C(c2cc3cn(-c4ccc([C@@H]5CCC[C@@H](CCSC(=N)N)N5)cc4)c(=O)nc3[nH]2)C1` [Compound 75], for which the MIC in assay [1] and in assay [2] was at most 16 µg/mL in each case.
